“And” between values parts separate entries of the source, which are not always exact repeats. Equal values may be shown once.
Columns and labels:
[1] = molecular target: human SPAK 452-547(C-term) with WNK peptide (RFQV) (Homo sapiens, UniProt Q9UEW8); assay: Fluorescence polarization of SPAK–WNK peptide interaction; format: binding; conditions: for Inhibitor vs SPAK FL (fluorescence polarization signal): Fig S5b
[2] = tested on: mouse model of ischemic stroke (tMCAO); assay: Infarct volume and hemispheric swelling (TTC) 24 h after tMCAO; format: in vivo
KCC3 pThr1048 = assay: Pharmacodynamic study, KCC3 phosphorylation in brain of naive mice; format: in vivo, mouse; conditions: for pTh1048 / KCC3: Fig S8a (brain)
Procedure: (§1) To define ZT-1a efficacy in naive mice in vivo, we examined phosphorylation of SPAK, NKCC1, and NCC in kidney, and phosphorylation of SPAK, NKCC1, and KCC3 in brain, after intraperitoneal (i.p.) administration of either ZT-1a (10, 30, 50, and 100 mg/kg) or Closantel (50 mg/kg as a reference). […]
(§2) 5. Pharmacodynamic (PD) study
(§3) Male C57BL/6j wild-type mice (6 weeks old, Charles River Laboratories Edinburgh UK) were treated with ZT-1a (in DMSO, Sigma) by subcutaneous injection at doses of 0, 3, 10, 30, 50 and 100 mg/kg. 50 mg/kg Closantel was administered as a comparative control. Vehicle control mice were treated with an equal volume of DMSO solution. One hour after administration, mice were sacrificed by cervical dislocation, and kidney and brain tissues were rapidly dissected and snap-frozen in liquid nitrogen. Age- […]
(§4) free conditions at the University of Dundee (UK) as described in our recent study1. Animal experiments and breeding were approved by the University of Dundee ethical committee and performed under a […]
(§5) Policy on the Care, Welfare and Treatment of Animals, and regulations set by the University of Dundee and the U.K. Home Office. […]
(§6) Brain and kidney tissues were collected at 60 min post injection, and proteins subjected to immunoblot were probed with antibodies specific for phosphorylated forms of SPAK,

NKCC1 pThr203/207/212 [3] = assay: Immunoblot of NKCC1 p-Thr203/Thr207/Thr212 in HEK-293 cells; format: cell-based, human; conditions: for pNKCC1/NKCC1 band intensity ratio: single replicates
NKCC1 pThr203/207/212 [4] = assay: Pharmacodynamic study, NKCC1 phosphorylation in kidney of naive mice; format: in vivo, mouse; conditions: Fig S8b (kidney)
Procedure: as §1, §2, §3, §4, §5, §6

SPAK pSer373 = assay: Immunoblot of SPAK/OSR1 p-Ser373/Ser325 in HEK-293 cells; format: cell-based, human; conditions: for pSPAK/SPAK band intensity ratio: single replicates
NCC pThr46/50/55/60 = assay: Pharmacodynamic study, NCC phosphorylation in kidney of naive mice; format: in vivo, mouse; conditions: Fig S8b (kidney); 10 mg/kg
Procedure: as §1, §2, §3, §4, §5, §6

## Cc1cc(C(C#N)c2ccc(Cl)cc2)c(Cl)cc1NC(=O)c1cc(Cl)ccc1O (stereo not shown) [ZT-1a, 5-chloro-N-(5-chloro-4-((4-chlorophenyl)(cyano)methyl)-2-methylphenyl)-2-hydroxybenzamide]
[1]; 10 nM Lumino-Green WNK peptide, read-out: IC50, decrease in fluorescence polarization (SPAK–WNK peptide)
  IC50: 325 µM
[1]; Inhibitor 1e-5 μM
  Inhibitor vs SPAK FL (fluorescence polarization signal): 140.3 and 136 and 147.2
[1]; Inhibitor 0.0001 μM
  Inhibitor vs SPAK FL (fluorescence polarization signal): 142.6 and 130.1 and 143.7
[1]; Inhibitor 0.001 μM
  Inhibitor vs SPAK FL (fluorescence polarization signal): 141.9 and 135.2 and 145.3
[1]; Inhibitor 0.003 μM
  Inhibitor vs SPAK FL (fluorescence polarization signal): 148.6 and 138.3 and 144.2
[1]; Inhibitor 0.01 μM
  Inhibitor vs SPAK FL (fluorescence polarization signal): 150.4 and 140.8 and 146.2
[1]; Inhibitor 0.03 μM
  Inhibitor vs SPAK FL (fluorescence polarization signal): 151.3 and 139.2 and 146.8
[1]; Inhibitor 0.1 μM
  Inhibitor vs SPAK FL (fluorescence polarization signal): 152.2 and 141.6 and 147.3
[1]; Inhibitor 0.3 μM
  Inhibitor vs SPAK FL (fluorescence polarization signal): 151.7 and 143.1 and 150.3
[1]; Inhibitor 1 μM
  Inhibitor vs SPAK FL (fluorescence polarization signal): 154.3 and 140.8 and 151.4
[1]; Inhibitor 3 μM
  Inhibitor vs SPAK FL (fluorescence polarization signal): 149 and 139.7 and 147.8
[1]; Inhibitor 10 μM
  Inhibitor vs SPAK FL (fluorescence polarization signal): 149.9 and 139.1 and 147.3
[1]; Inhibitor 100 μM
  Inhibitor vs SPAK FL (fluorescence polarization signal): 127.1 and 121.5 and 130.6
[2]; ZT-1a 2.5 or 5 mg/kg, vs vehicle control
  reduction of cerebral hemispheric swelling: 36–54%
[2]; ZT-1a from 3 h post reperfusion, 24 h post tMCAO, n = 12
  infarct volume: 43.6 ± 6.5 mm^3
[2]; ZT-1a from 3 h post reperfusion, 24 h post tMCAO, vs vehicle, n = 12
  decrease of infarct volume: ~ 44%
KCC3 pThr1048; 60 min after administration
  KCC3 phosphorylation (pThr1048) in naive brains: neither drug had reduced
KCC3 pThr1048; 10 mg/kg
  pTh1048 / KCC3: 1.01 and 0.99 and 1 and 0.95
KCC3 pThr1048; 30 mg/kg
  pTh1048 / KCC3: 1.05 and 0.97 and 0.9 and 0.96
KCC3 pThr1048; 50 mg/kg
  pTh1048 / KCC3: 0.87 and 0.92 and 1.06 and 0.97
KCC3 pThr1048; 100 mg/kg
  pTh1048 / KCC3: 0.94 and 0.87 and 0.99 and 0.9
NKCC1 pThr203/207/212 [3]; Homo sapiens, HEK293, read-out: inhibition of phosphorylation of NKCC1 p-Thr203/207/212, 1 µM ZT-1a, HEK-293 cells, n = 4
  inhibition at 1 µM: 72 ± 5.2%
NKCC1 pThr203/207/212 [3]; Hypotonic low Cl, 1 uM
  pNKCC1/NKCC1 band intensity ratio: 0.292 and 0.311 and 0.247 and 0.273
NKCC1 pThr203/207/212 [3]; Hypotonic low Cl, 3 uM
  pNKCC1/NKCC1 band intensity ratio: 0.113 and 0.104 and 0.103 and 0.1063
NKCC1 pThr203/207/212 [3]; Hypotonic low Cl, 10 uM
  pNKCC1/NKCC1 band intensity ratio: 0.004 and 0.007 and 0.005 and 0.003
NKCC1 pThr203/207/212 [3]; Isotonic control, 1 uM
  pNKCC1/NKCC1 band intensity ratio: 0.133 and 0.075 and 0.106 and 0.093
NKCC1 pThr203/207/212 [3]; Isotonic control, 3 uM
  pNKCC1/NKCC1 band intensity ratio: 0.048 and 0.046 and 0.043 and 0.041
NKCC1 pThr203/207/212 [3]; Isotonic control, 10 uM
  pNKCC1/NKCC1 band intensity ratio: 0.006 (2×) and 0.004 and 0.005
NKCC1 pThr203/207/212 [4]; 10 mg/kg
  pTh203.207.212 / NKCC1: 1.13 and 1.26 and 1.54 and 1.32
NKCC1 pThr203/207/212 [4]; 30 mg/kg
  pTh203.207.212 / NKCC1: 1.14 and 0.89 and 0.64 and 0.77
NKCC1 pThr203/207/212 [4]; 100 mg/kg
  pTh203.207.212 / NKCC1: 0.41 and 0.27 and 0.44 and 0.32
SPAK pSer373; Hypotonic low Cl, 1 uM
  pSPAK/SPAK band intensity ratio: 0.189 and 0.226 and 0.157 and 0.173
SPAK pSer373; Hypotonic low Cl, 3 uM
  pSPAK/SPAK band intensity ratio: 0.081 and 0.093 and 0.086 and 0.0963
SPAK pSer373; Hypotonic low Cl, 10 uM
  pSPAK/SPAK band intensity ratio: 0.038 and 0.034 and 0.031 and 0.043
SPAK pSer373; Isotonic control, 1 uM
  pSPAK/SPAK band intensity ratio: 0.113 and 0.123 and 0.106 and 0.12
SPAK pSer373; Isotonic control, 3 uM
  pSPAK/SPAK band intensity ratio: 0.067 and 0.051 and 0.053 and 0.059
SPAK pSer373; Isotonic control, 10 uM
  pSPAK/SPAK band intensity ratio: 0.031 and 0.034 and 0.024 and 0.028
SPAK pSer373; ~3–10 µM ZT-1a, n = 3
  inhibition of SPAK phosphorylation at Ser373: 70 ± 3.8%
NCC pThr46/50/55/60
  pTh46.50.55 / NCC: 1.78 and 1.82 and 2.81 and 2.21
  pTh60 / NCC: 1.01 and 0.99 and 1 and 0.94

— article PMC6946680, “Modulation of brain cation-Cl^− cotransport via the SPAK kinase inhibitor ZT-1a” (Nature Communications, 2020)
